# Source: US11065259B2, “Methods of treating pruritus” (Duke University, priority 2014, dated 2021)
# Tested on: pruritus (itch)
# Assay: Topical administration to human subjects with psoriasis-associated pruritus
# Type: in vivo
# Settings: person
# Method: The efficacy of Manganese ortho tetrakis(N-n-butoxyethylpyridinium-2-yl)porphyrin (MnTnBuOE-2-PyP^5+) in treating pruritus (itch) when topically applied was evaluated in a person with large areas of moderately severe plaque-forming psoriasis on upper and lower portions of both legs, with each involved area being approximately 10-20 cm in diameter. These lesions were markedly excoriated with intense, persistent symptoms of pruritus. MnTnBuOE-2-PyP^5+ was formulated in Lipoderm at 0.01% and 0.1% concentrations producing a light brown cream which was applied b.i.d. to lesions on one extremity. Symptoms of pruritus were relieved within 10 to 15 minutes after topical application of MnTnBuOE-2-PyP^5+ and remained under control for several hours.
# A second subject with psoriatic involvement of the scalp of moderate severity and associated with marked pruritus and scratching was topically treated with MnTnBuOE-2-PyP^5+ 0.1% in Lipoderm twice daily for 3 weeks.
# [1] = plaque-forming psoriasis on both legs, 0.01% and 0.1% in Lipoderm, topical b.i.d.
# [2] = psoriatic involvement of the scalp, 0.1% in Lipoderm, topical twice daily for 3 weeks
substance,measurement,setting,value
Manganese ortho tetrakis(N-n-butoxyethylpyridinium-2-yl)porphyrin [MnTnBuOE-2-PyP^5+],time after topical application until symptoms of pruritus were relieved,[1],10 to 15 min
same,time symptoms of pruritus remained under control,[1],several hours
same,comparison of efficacy of 0.01% and 0.1% concentrations,"plaque-forming psoriasis on both legs, lesions treated with 0.01% vs 0.1% in Lipoderm",Equivalent efficacy
same,effect of repeat application on pruritus,"plaque-forming psoriasis on both legs, repeat topical application in Lipoderm",consistently reduced pruritus without tachyphylaxis
same,resolution of pruritic symptoms,[2],completely effective in resolving pruritic symptoms
same,time after application until symptoms of pruritus were relieved,[2],within minutes
same,time symptoms of pruritus remained under control,[2],up to 12 hours
